Experimental findings from patent US20150152064A1, “METHODS AND COMPOSITIONS OF TREATING A FLAVIVIRIDAE FAMILY VIRAL INFECTION” (The Board of Trustees of the Leland Stanford Junior …, priority 2007, published 2015) are described below.

The data set in a line: in vitro. To be noted: human, huh-7.5 cells. Type of data set: cell-based. The procedure: Luciferase assays are performed at about 48 hr to about 72 hr or 96 hr.
After a 5-30 min recovery at about 25° C., pulsed cells are diluted into 2-25 ml of prewarmed growth medium. […] Untreated cells are used as a negative control for water soluble compounds. […] Medium is changed daily.
Following about 48, about 72, or about 96 hrs of treatment, cells are incubated for 1-5 hrs at about 37° C. in the presence of 1-20% Alamar Blue reagent (TREK Diagnostic Systems).

Turning to `Cc1ccc(Cn2ncc3ccccc32)cc1` [Compound 185], the viability at 5 µM was not below 90% and the viability at 10 µM was not below 90%.

For orientation: viability means the share of living cells, or the viability signal relative to a control.
